From patent publication US11130960B2, “Methods for conferring or enhancing herbicide resistance on plants and/or alga with protoporphyrinogen oxidase variants” (FARM HANNONG CO., LTD., priority 2014, dated 2021)
Entries after “also recorded” stand apart in the source; their conditions may differ.

Legend:
CyPPO8 = test: Growth of transformed BT3(ΔPPO) E. coli in LB liquid medium (OD600); assay type: cell-based, Halothece sp. PCC 7418; conditions: 37° C., OD600 over culture time
Experimental: In Example 3, herbicide resistance of respective BT3(ΔPPO) strains transformed with the wild-type AtPPO1, mutant AtPPO1, CyPPO2, CyPPO4 or CyPPO8 gene was investigated on agar media containing different herbicides, and in this Example, herbicide resistance of the strains was investigated in LB liquid media containing different herbicides.
HV-50 autoclave from Hirayama, HS2100A electronic scale from Hansung Instrument, CB-30V clean bench from Jeio Tech, JSI-200CL incubator from JSR, MQ-200 photometer from Apogee, and 1210 type UV-visible spectrophotometer from Thermo Fisher Scientific were used. The autoclave was used under conditions of 121° C. and 15 minutes, and the incubator was used at 37° C. with lighting of 160˜200 μmol m^−2s^−1 for a culture time of 13.5 hours. The UV-visible spectrophotometer was used at 600 nm.
Tiafenacil (M.W. 511.87 g/mol), Saflufenacil (M.W. 500.85 g/mol), and Fomesafen (M.W. 438.76 g/mol) used in the experiment were purchased from Dongbu Farm Hannong Co., Ltd, Sigma, and Sigma, respectively. […]
For seed culture of E. coli transformed with respective genes, single colonies thereof were cultured in 3 ml of LB broth containing chloramphenicol for 12 hours, and they were diluted with LB broth to absorbance (OD600) of 1.5. […] Absorbance (OD600) was measured using a spectrophotometer every 1.5 hours. […]

[1] = tested on: wild-type Arabidopsis thaliana (Col-0); test: Seed germination / growth on ½ MS medium containing herbicide; assay type: in vivo; conditions: for germination / growth on herbicide medium after 2 weeks: ½ MS medium with 70 nM Tiafenacil
Experimental: (§1) To examine tiafenacil resistance of T2 generation seeds which survived under treatment of 1 μM tiafenacil, among the CyPPO2 and CyPPO8 transformants, Arabidopsis thaliana seeds were sown in ½ MS medium (1.125 g/L of MS salt, 10 g/L of sucrose, 7 g/L of Agar) containing 70 nM tiafenacil. […] Therefore, survival under 70 nM tiafenacil means that a plant has resistance against tiafenacil.
(§2) In Arabidopsis thaliana transformant including CyPPO2 or CyPPO8 gene, which was obtained by transformation using the plant transformation vector prepared in Example 6, the PPO activity-inhibiting herbicide-resistant gene and glufosinate-resistant gene are expressed at the same time. Therefore, it was examined whether cross-treatment of Arabidopsis thaliana transformant with two herbicides, namely, PPO activity-inhibiting herbicide and glufosinate is effective for weed control. To this end, seeds of CyPPO2 and BAR gene-inserted Arabidopsis thaliana transformant, or CyPPO8 and BAR gene-inserted Arabidopsis thaliana transformant were sterilized and treated at low temperature of 4° C. for 2 days. The seeds were sown in a ½ MS medium (Duchefa), a ½MS medium containing 70 nM Tiafenacil, a ½MS medium containing 50 uM glufosinate, or a ½MS medium containing 70 nM Tiafenacil and 50 uM glufosinate, and grown at 23° C. under 16 hour-light/8 hour-dark conditions for 7-14 days. Arabidopsis thaliana on the herbicide media was CyPPO2 or CyPPO8-transformed seed and the wild-type Col0 as a control, respectively. The transformant and the control were cultured on herbicide media. After 2 weeks, they were examined.
(§3) In Example 9, it was confirmed that Arabidopsis thaliana transformant prepared in the present invention has resistance against the two PPO-based herbicides, Tiafenacil and Saflufenacil at the same time, and therefore, it was tested whether the cross-treatment of Arabidopsis thaliana transformant with Tiafenacil and Saflufenacil is effective for weed control. To this end, seeds of CyPPO2 or CyPPO8 gene-inserted Arabidopsis thaliana transformant were sterilized and treated at low temperature of 4° C. for 2 days. The seeds were sown in a ½ MS medium, a ½MS medium containing 70 nM Tiafenacil, a ½MS medium containing 70 nM Saflufenacil, or a ½MS medium containing 35 nM Tiafenacil and 35 nM Saflufenacil, and grown at 23° C. under 16 hour-light/8 hour-dark conditions for 7-14 days. Arabidopsis thaliana on the herbicide media was CyPPO2 or CyPPO8-transformed seed and the wild-type Col0 as a control, respectively. The transformant and the control were cultured on herbicide media. After 2 weeks, they were examined.

CyPPO8 transformants = test: as above; assay type: in vivo, Arabidopsis thaliana; conditions: for germination / growth on herbicide medium after 2 weeks: ½ MS medium with 70 nM Tiafenacil
Experimental: as §1, §2, §3

CyPPO2 transformants = test: as above; assay type: in vivo, Arabidopsis thaliana; conditions: for germination / growth on herbicide medium after 2 weeks: ½ MS medium with 70 nM Tiafenacil
Experimental: as §1, §2, §3

[2] = 70 nM Saflufenacil, or 35 nM Tiafenacil and 35 nM Saflufenacil

Row | Structure (SMILES) | concentration by which the strain normally grew (CyPPO8) [µM] | germination / growth on herbicide medium after 2 weeks [1, 2] | germination / growth on herbicide medium after 2 weeks (CyPPO8 transformants; [2]) | germination / growth on herbicide medium after 2 weeks (CyPPO2 transformants; [2]) | seed germination ([1]; ½ MS medium containing 50 nM tiafenacil) | seed germination ([1]; ½ MS medium containing 70 nM tiafenacil) | germination / growth on herbicide medium after 2 weeks ([1]; 50 uM glufosinate, or 70 nM Tiafenacil and 50 uM glufosinate) | germination / growth on herbicide medium after 2 weeks (CyPPO8 transformants; CyPPO8 and BAR gene-inserted, 50 uM glufosinate, or both) | seed germination (CyPPO8 transformants; ½ MS medium containing 70 nM tiafenacil, T2 generation lines no. 6, 16 and 40) | germination / growth on herbicide medium after 2 weeks (CyPPO2 transformants; CyPPO2 and BAR gene-inserted, 50 uM glufosinate, or both) | seed germination (CyPPO2 transformants; ½ MS medium containing 70 nM tiafenacil, T2 generation lines no. 1 and 49)
1 | CS(=O)(=O)NC(=O)c1cc(Oc2ccc(C(F)(F)F)cc2Cl)ccc1[N+](=O)[O-] [Fomesafen] | ≤ 100 | – | – | – | – | – | – | – | – | – | –
2 | CC(C)N(C)S(=O)(=O)NC(=O)c1cc(-n2c(=O)cc(C(F)(F)F)n(C)c2=O)c(F)cc1Cl [Saflufenacil] | ≤ 100 | not germinated | normally grew | normally grew | – | – | – | – | – | – | –
3 | COC(=O)CCNC(=O)C(C)Sc1cc(-n2c(=O)cc(C(F)(F)F)n(C)c2=O)c(F)cc1Cl (stereo not drawn) [Tiafenacil] | – | not germinated | normally grew | normally grew | reduced seed germination | no normal seed germination and was killed; also recorded: showed no germination | not germinated | normally grew | showed germination | normally grew | showed germination
